SMILES strings stand for the structures. Peptide text beside a SMILES is read from it.

The results in this text go back to ChEMBL document CHEMBL1123994, “Excitatory amino acid neurotransmission” (J Med Chem, 1988).

Series [1] is described as follows: Inhibition of specific brain peptidase.
The nature of series [2]: Ionization constant was determined. The series is classed as physicochemical.
Series [3] in a line: Inhibition of Cl- dependent binding sites of AP4 receptor labeled with [3H]- glutamic acid.

A word on the IC50: it is the concentration that gives 50% inhibition. A higher IC50 goes with weaker potency in that assay. For orientation: pKa means the negative logarithm of the acid dissociation constant. Read a low pKa as a group that gives up its proton readily. Compound `N[C@@H](Cn1oc(=O)[nH]c1=O)C(=O)O` [QUISQUALATE] registered an IC50 in series [1] of 0.48 µM. This compound also came in with a pKa in series [2] of 4.2.
Usually Ki stands for a measure of affinity in units of concentration, obtained from inhibition or displacement. Higher therefore signals lower affinity. Consider `CC(=O)NC(CC(=O)O)C(=O)NC(CCC(=O)O)C(=O)O` (stereo not drawn) (Ac-Asp-Glu-OH; configuration not given here), for which affinity in series [3] was put at a Ki of 0.42 µM.
`NC(CN1CC(=O)NC1=O)C(=O)O` (centres undefined): the pKa in series [2] amounted to 8.2.
